Here are results for 53 compounds from US10258602B2 (Ocera Therapeutics, Inc., priority 2007, dated 2019).

Usually Ki stands for a measure of affinity in units of concentration, obtained from inhibition or displacement. The low end stands for a stronger hold on the target, the high end for a looser hold on the target.

Each structure is given as a SMILES string.

Sequence of human growth hormone secretagogue receptor (hGHS-R1a) (Q92847 whole entry): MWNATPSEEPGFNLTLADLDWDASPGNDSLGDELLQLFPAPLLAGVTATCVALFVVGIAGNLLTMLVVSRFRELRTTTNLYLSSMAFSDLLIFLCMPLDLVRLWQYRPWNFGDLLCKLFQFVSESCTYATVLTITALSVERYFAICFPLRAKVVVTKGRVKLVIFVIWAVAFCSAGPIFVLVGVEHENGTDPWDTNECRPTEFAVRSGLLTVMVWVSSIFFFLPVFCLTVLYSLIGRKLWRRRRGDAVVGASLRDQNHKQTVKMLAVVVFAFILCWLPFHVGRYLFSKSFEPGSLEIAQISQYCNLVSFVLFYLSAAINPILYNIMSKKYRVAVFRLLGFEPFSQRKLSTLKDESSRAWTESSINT

The first assay addresses human growth hormone secretagogue receptor (hGHS-R1a) (Homo sapiens, UniProt Q92847). The assay can be described thus: Competitive radioligand binding assay (ghrelin receptor), standard method A.
Conditions: not given
From the text: A competitive binding assay at the human growth hormone secretagogue receptor (hGHS-R1a) can be carried out analogously to assays described in the literature. (Bednarek, M. A.; et al. J. Med. Chem. 2000, 43, 4370-4376; Palucki, B. L.; et al. Bioorg. Med. Chem. Lett. […], 11, 1955-1957.) See also U.S. patent application Ser. Nos. 11/149,512 and 11/149,731. Binding activity at the gherlin receptor for representative compounds of the present invention is shown in the Examples below.
For the compound `CCC(C)[C@@H]1NCC(C)(C)Oc2ccccc2CCCNC(=O)[C@@H](Cc2ccccc2)NC(=O)[C@@H](C)N(C)C1=O` (some centres unmarked) [Compound 923], the Ki is at most 100 nM.

Staying with this assay, now noted: binding activity at the human ghrelin receptor, standard method A.
The compound `CC1CNC(C2CC2)C(=O)N(C)C(C)C(=O)NC(CC2CCCC2)C(=O)NCCCc2ccccc2O1` (mixture of isomers) [Compound 1047] had a Ki of at most 100 nM.
The compound `CC1CNC(C2CC2)C(=O)N(C)C(C)C(=O)NC(Cc2ccc(O)c(F)c2)C(=O)NCCCc2ccccc2O1` (mixture of isomers) [Compound 1049] gave a Ki of at most 100 nM.
Still for that read-out and setting: with `CC1CNC(C2CC2)C(=O)N(C)C(C)C(=O)NC(Cc2ccc(F)cc2)C(=O)NCCCC2CCCCC2O1` (mixture of isomers) [Compound 1052] the figure was at most 1 nM; with `CC(=O)Oc1ccc(CC2NC(=O)C(C)N(C)C(=O)C(C3CC3)NCC(C)Oc3ccccc3CCCNC2=O)cc1F` (mixture of isomers) [Compound 1065], at most 100 nM.
Same read-out and setting: with `CC1C(=O)NC(Cc2ccc(O)c(F)c2)C(=O)NCCCc2ncccc2OCCNC(C2CC2)C(=O)N1C` (mixture of isomers) [Compound 1078] the figure was at most 100 nM.
Regarding `CC1CNC(C2CC2)C(=O)N(C)C(C)C(=O)NC(Cc2ccccc2O)C(=O)NCCCc2ccccc2O1` (mixture of isomers) [Compound 1101], the Ki is at most 500 nM.
The same measure, in the same setting: the result for `CC1CNC(C2CC2)C(=O)N(C)C(C)C(=O)NC(CC2CCCC2)C(=O)NCCCC2CCCCC2O1` (mixture of isomers) [Compound 1114] reads at most 1 nM; that for `CC1CNC(C2CC2)C(=O)N(C)C(C)C(=O)NC(Cc2ccccc2O)C(=O)NCCCC2CCCCC2O1` (mixture of isomers) [Compound 1115], at most 500 nM.
As to `C[C@@H]1CN[C@@H](C2CC2)C(=O)N(C)[C@H](C)C(=O)N[C@H](Cc2ccccc2)C(=O)NCCCc2ccccc2O1` [Compound 851], the Ki is at most 100 nM.
The same measure, in the same setting: with `CCC[C@@H]1NC[C@@H](C)Oc2ccccc2CCCNC(=O)[C@@H](Cc2ccc(F)cc2)NC(=O)[C@@H](C)N(C)C1=O` [Compound 853] the figure was at most 100 nM; with `CC[C@H](C)[C@@H]1NC[C@@H](C)Oc2ccccc2CCCNC(=O)[C@@H](Cc2ccc(F)cc2)NC(=O)[C@@H](C)N(C)C1=O` [Compound 855], at most 100 nM; with `CC[C@H](C)[C@@H]1NC[C@@H](C)Oc2cc(F)ccc2CCCNC(=O)[C@@H](Cc2ccc(F)cc2)NC(=O)[C@@H](C)N(C)C1=O` [Compound 856], at most 500 nM.
`CC(C)[C@@H]1NC[C@@H](C)Oc2ccccc2CCCNC(=O)[C@@H](Cc2ccc(F)cc2)NC(=O)[C@@H](C)N(C)C1=O` [Compound 857] came in with an inhibitory constant (Ki) of at most 500 nM.
The compound `CCC[C@@H]1NC[C@@H](C)Oc2ccccc2CCCNC(=O)[C@@H](Cc2ccccc2)NC(=O)[C@@H](C)N(C)C1=O` [Compound 858] gave a Ki of at most 500 nM.
The same measure, in the same setting: the result for `CCC[C@@H]1NC[C@H](C)Oc2ccccc2CCCNC(=O)[C@@H](Cc2ccccc2)NC(=O)[C@@H](C)N(C)C1=O` [Compound 859] reads at most 500 nM; that for `Cc1ccc(C[C@H]2NC(=O)[C@@H](C)N(C)C(=O)[C@H](C3CC3)NCCOc3ccccc3CCCNC2=O)cc1` [Compound 860], at most 10 nM; that for `CCC[C@@H]1NC[C@@H](C)Oc2ccccc2CCCNC(=O)[C@@H](Cc2ccc(Cl)cc2)NC(=O)[C@@H](C)N(C)C1=O` [Compound 863], at most 100 nM.
On to `C[C@@H]1C(=O)N[C@H](Cc2ccc(Cl)cc2)C(=O)NCCCc2ccc(F)cc2OCCN[C@@H](C2CC2)C(=O)N1C` [Compound 864], for which the Ki was at most 10 nM.
The same measure, in the same setting: with `C[C@@H]1C(=O)N[C@H](Cc2ccccc2)C(=O)NCCCc2ccc(F)cc2OCCN[C@@H](C2CC2)C(=O)N1C` [Compound 865] the figure was at most 100 nM; with `CCC[C@@H]1NC[C@@H](C)Oc2ccccc2CCCNC(=O)[C@@H](Cc2ccc(OC)cc2)NC(=O)[C@@H](C)N(C)C1=O` [Compound 866], at most 100 nM.
On the same count and under the same terms, the result for `COc1ccc(C[C@H]2NC(=O)[C@@H](C)N(C)C(=O)[C@H](C3CC3)NC[C@@H](C)Oc3ccccc3CCCNC2=O)cc1` [Compound 867] reads at most 100 nM; that for `CC(C)[C@@H]1NC[C@H](C)Oc2ccccc2CCCNC(=O)[C@@H](Cc2ccccc2)NC(=O)[C@@H](C)N(C)C1=O` [Compound 870], at most 500 nM.
As to `CC(C)[C@@H]1NC[C@@H](C)Oc2ccccc2CCCNC(=O)[C@@H](Cc2ccccc2)NC(=O)[C@@H](C)N(C)C1=O` [Compound 871], the inhibition constant (Ki) is at most 500 nM.
On the same count and under the same terms, with `C[C@@H]1C(=O)N[C@H](Cc2ccccc2Cl)C(=O)NCCCc2ccccc2OCCN[C@@H](C2CC2)C(=O)N1C` [Compound 872] the figure was at most 10 nM; with `C[C@@H]1C(=O)N[C@H](Cc2cccc(Cl)c2)C(=O)NCCCc2ccccc2OCCN[C@@H](C2CC2)C(=O)N1C` [Compound 873], at most 100 nM; with `C[C@@H]1C(=O)N[C@H](Cc2ccccc2)C(=O)NCCCc2cccc3c2OC(CC3)CN[C@@H](C2CC2)C(=O)N1C` (some centres unmarked) [Compound 874], at most 100 nM.
On the same count and under the same terms, with `C[C@@H]1CN[C@@H](C2CC2)C(=O)N(C)[C@H](C)C(=O)N[C@H](Cc2ccccc2)C(=O)NCCCc2ccc(F)cc2O1` [Compound 876] the figure was at most 100 nM.
Same read-out and setting: with `CC[C@H](C)[C@@H]1NC[C@@H](C)Oc2ccccc2CCCNC(=O)[C@@H](Cc2ccc(Cl)cc2)NC(=O)[C@@H](C)N(C)C1=O` [Compound 878] the figure was at most 100 nM.
The compound `C[C@@H]1CN[C@@H](C2CC2)C(=O)N(C)[C@H](C)C(=O)N[C@H](Cc2ccc(Cl)cc2)C(=O)NCCCc2cccc(F)c2O1` [Compound 936] yielded an inhibitory constant (Ki) of at most 100 nM.
Same read-out and setting: the result for `C[C@@H]1CN[C@@H](C2CC2)C(=O)N(C)[C@H](C)C(=O)N[C@H](Cc2ccc(F)cc2)C(=O)NCCCc2c(F)cccc2O1` [Compound 937] reads at most 500 nM.
For the compound `C[C@@H]1CN[C@@H](C2CC2)C(=O)N(C)[C@H](C)C(=O)N[C@H](Cc2ccc(Cl)cc2)C(=O)NCCCc2c(F)cccc2O1` [Compound 938], the Ki was at most 100 nM.
Still for that read-out and setting: with `CC[C@H](C)[C@@H]1NC[C@@H](C)Oc2ccccc2CCCNC(=O)[C@@H](Cc2ccccc2)NC(=O)[C@@H](CO)N(C)C1=O` [Compound 939] the figure was at most 100 nM.
Same read-out and setting: with `C[C@@H]1C(=O)N[C@H](Cc2ccc(F)cc2)C(=O)NCCCc2cccc3c2OC(CC3)CN[C@@H](C2CC2)C(=O)N1C` (some centres unmarked) [Compound 946] the figure was at most 10 nM; with `C[C@@H]1C(=O)N[C@H](Cc2ccc(Cl)cc2)C(=O)NCCCc2cccc3c2OC(CC3)CN[C@@H](C2CC2)C(=O)N1C` (some centres unmarked) [Compound 947], at most 10 nM.
As to `C[C@@H]1CN[C@@H](C2CC2)C(=O)N(C)[C@H](C)C(=O)N[C@H](Cc2ccc(F)cc2)C(=O)NCCCc2cc(F)c(F)cc2O1` [Compound 950], the Ki was at most 500 nM.
`C[C@@H]1CN[C@@H](C2CC2)C(=O)N(C)[C@H](C)C(=O)N[C@H](Cc2ccc(Cl)cc2)C(=O)NCCCc2cc(F)c(F)cc2O1` [Compound 951] returned a Ki of at most 500 nM.
Still for that read-out and setting: with `CC[C@H](C)[C@@H]1NCCOc2ccccc2CCCNC(=O)[C@@H](Cc2ccccc2)NC(=O)[C@@H](CF)N(C)C1=O` [Compound 954] the figure was at most 500 nM.
Same read-out and setting: the result for `CC(C)[C@@H]1CN[C@@H](C2CC2)C(=O)N(C)[C@H](C)C(=O)N[C@H](Cc2ccccc2)C(=O)NCCCc2ccc(F)cc2O1` [Compound 965] reads at most 500 nM; that for `CC(C)[C@@H]1CN[C@@H](C2CC2)C(=O)N(C)[C@H](C)C(=O)N[C@H](Cc2ccc(Cl)cc2)C(=O)NCCCc2ccc(F)cc2O1` [Compound 966], at most 500 nM.
On to `C[C@@H]1CN[C@@H](C2CC2)C(=O)N(C)[C@H](C)C(=O)N[C@H](Cc2ccccn2)C(=O)NCCCc2ccccc2O1` [Compound 972], for which the Ki was at most 100 nM.
Same read-out and setting: the result for `CC[C@H](C)[C@@H]1NC[C@@H](C)Oc2c(F)cccc2CCCNC(=O)[C@@H](Cc2cccnc2)NC(=O)[C@@H](C)N(C)C1=O` [Compound 974] reads at most 100 nM.
On to `C[C@@H]1CN[C@@H](C2CC2)C(=O)N(C)[C@H](C)C(=O)N[C@H](Cc2ccncc2)C(=O)NCCCc2ccccc2O1` [Compound 977], for which the Ki is at most 500 nM.
Same read-out and setting: with `CC[C@H](C)[C@@H]1NC[C@@H](C)Oc2ccccc2CCCNC(=O)[C@@H](Cc2ccncc2)NC(=O)[C@@H](C)N(C)C1=O` [Compound 978] the figure was at most 100 nM; with `CC[C@H](C)[C@@H]1NC[C@@H](C)Oc2c(F)cccc2CCCNC(=O)[C@@H](CC(C)C)NC(=O)[C@@H](C)N(C)C1=O` [Compound 981], at most 10 nM; with `CC(C)C[C@H]1NC(=O)[C@@H](C)N(C)C(=O)[C@H](C2CC2)NCCOc2cccnc2CCCNC1=O` [Compound 986], over 500 nM.
In turn, `CC[C@H](C)[C@@H]1NCCOc2cccnc2CCCNC(=O)[C@@H](CC(C)C)NC(=O)[C@@H](C)N(C)C1=O` [Compound 987] showed an inhibition constant Ki of at most 500 nM.
Compound `C[C@@H]1C(=O)N[C@H](Cc2ccc(O)cc2)C(=O)NCCCc2ncccc2OCCN[C@@H](C2CC2)C(=O)N1C` [Compound 988] showed a Ki of at most 100 nM.
Turning to `C[C@@H]1CN[C@@H](C2CC2)C(=O)N(C)[C@H](C)C(=O)N[C@H](Cc2ccc(O)cc2)C(=O)NCCCc2cccc(F)c2O1` [Compound 991], the Ki is at most 100 nM.
Still for that read-out and setting: with `CC[C@H](C)[C@@H]1NCCOc2cccnc2CCCNC(=O)[C@@H](Cc2ccc(O)cc2)NC(=O)[C@@H](C)N(C)C1=O` [Compound 992] the figure was at most 100 nM.
The same measure, in the same setting: the result for `CC[C@H](C)[C@@H]1NC[C@@H](C)Oc2ccccc2CCCNC(=O)[C@@H](Cc2ccc(O)cc2)NC(=O)[C@@H](C)N(C)C1=O` [Compound 993] reads at most 100 nM.
On the same count and under the same terms, the result for `CC[C@H](C)[C@@H]1NC[C@@H](C)Oc2c(F)cccc2CCCNC(=O)[C@@H](Cc2ccc(O)cc2)NC(=O)[C@@H](C)N(C)C1=O` [Compound 994] reads at most 100 nM; that for `C[C@@H]1C(=O)N[C@H](Cc2cccs2)C(=O)NCCCc2ncccc2OCCN[C@@H](C2CC2)C(=O)N1C` [Compound 995], at most 100 nM.
